{
  "source": "patent US20220142955A1",
  "about": "“METHODS OF TREATING ORGANIC ACIDEMIAS” (HemoShear Therapeutics, Inc., priority 2019, published 2022)",
  "key": {"[1]": {"tested_on": "primary hepatocytes of propionic acidemia patients", "assay": "Reduction of 13C-propionyl-CoA and accumulation of compound-CoA ester after 13C-isoleucine challenge (Example 1)", "type": "cell-based", "conditions": "Homo sapiens, Hepatocyte, 13C-labeled isoleucine, compound 0 μM to 1,000 μM", "protocol": "Primary hepatocytes are isolated from explanted livers of propionic acidemia patients and are cultured on day 1 using standard protocols (see: Chapman et al. “Recapitulation of metabolic defects in a model of propionic acidemia using patient-derived primary hepatocytes” Mol. Genet. Metab. 2016, 117(3), 355-362). Approximately 2×10^5 hepatocytes are plated into each well of a collagen-coated 48-well tissue culture plate and pre-conditioned in a custom Modified Corning culture media for Hepatocells (Corning) without low levels of branched chain amino acids for 72 hours. On day 4, hepatocytes are treated with increasing doses of compound (0, 1, 3, 10, 30, 100, 300, 1000 μM) for 30 min. After 30 min the cells are challenged with ^13C-isoleucine (3 mM). At the end of the challenge period, cells are lysed in 100 μL of […] acetonitrile (MeCN) and 0.1% trifluoroacetic acid (TFA) containing 100 μM of ethymalonyl-CoA as an internal standard. Cells are removed from the well by scraping into the lysis buffer. The collected cellular samples are then dispensed into a microfuge tube. The plate wells are washed again with lysis buffer to ensure the remaining cells are dislocated from the well. All remaining collected cells are then moved into the centrifuge tube. The cellular samples are flash frozen in liquid nitrogen and stored at −80° C. To begin processing, the frozen cellular lysates are thawed on ice and vortexed. The samples are centrifuged at 20,000 g for 10 min at 4° C. and the total volume of supernatant is transferred to a no-bind 96-well plate on ice. The samples are dried under vacuum for about 2 hours and then resuspended in 150 μL of water in each well. Total volumes of samples are filtered through a prepared Durapore filter plate into a no-bind 96-well plate. The filtered samples are stored at −80° C. for HTMS/MS analysis."}, "[2]": {"tested_on": "primary hepatocytes of propionic acidemia patients", "assay": "Propionyl-CoA from various sources in PA primary hepatocytes (Examples 2, 3)", "type": "cell-based, human", "conditions": "for EC50: Homo sapiens, Hepatocyte, read-out: concentration of propionyl-CoA EC50", "protocol": "Primary hepatocytes isolated from livers of propionic acidemia patients are treated with increasing doses of compound 1 (0, 1, 3, 10, 30, 100, 300, 1000 μM) for 30 min. After 30 min the cells are challenged with the different sources of P-CoA, which may include ^13C-ketoisovaleric acid (KIVA) (1 mM), […] (ILE) (3 mM), ^13C-threonine (THR) (5 mM), ^13C-methionine (MET) (5 mM), ^13C-heptanoate (100 μM), or ^13C-propionate (5 mM) for 60 minutes. At the end of the challenge period, media is removed and the cells are lysed with 70% MeCN and 0.1% TFA containing 100 μM of ethymalonyl-CoA as an internal standard and harvested. Cell lysates are processed for HTMS/MS analysis.\nPrimary hepatocytes isolated from livers of propionic acidemia patients are treated with increasing doses of compound 5 (0, 0.1, 0.3, 1, 3, 10, 30, 100 μM) for 30 minutes. After 30 minutes the cells are challenged with the different sources of P-CoA, which may include ^13C-KIVA (1 mM), ^13C-isoleucine (3 mM), ^13C-threonine (5 mM), ^13C-methionine (5 mM), ^13C-heptanoate (100 μM), or ^13C-propionate (5 mM) for 60 minutes. At the end of the challenge period, media is removed and the cells are lysed with 70% MeCN and 0.1% TFA containing 100 μM of ethymalonyl-CoA as an internal standard and harvested. Cell lysates are processed for HTMS/MS analysis."}, "[3]": {"tested_on": "primary hepatocytes of methylmalonic acidemia patients", "assay": "Propionyl-CoA and methylmalonyl-CoA from various sources in MMA primary hepatocytes (Examples 4, 5)", "type": "cell-based, human", "conditions": "for EC50: Homo sapiens, Hepatocyte", "protocol": "(§1) Primary hepatocytes isolated from livers of methylmalonic acidemia patients are treated with increasing doses of compound 1 (0, 1, 3, 10, 30, 100, 300, 1000 μM) for 30 minutes. […] At the end of the challenge period, media is removed and the cells are lysed with 70% MCCN and 0.1% TFA containing 100 μM of ethymalonyl-CoA as an internal standard and harvested. Cell lysates are processed for HTMS/MS analysis.\nas §1, with “compound 5” for “compound 1”, “(0, 0.1, 0.3,” for “(0,”, “30, 100” for “30, 100, 300, 1000”, “30 min.” for “30 minutes.”, “70% MeCN” for “70% MCCN”"}, "[4]": {"tested_on": "primary hepatocytes of propionic acidemia patients", "assay": "Propionyl-carnitine (C3) in PA primary hepatocytes (Example 6)", "type": "cell-based, human", "conditions": "for EC50: Homo sapiens, Hepatocyte, read-out: concentration of propionyl-carnitine EC50", "protocol": "Primary hepatocytes isolated from livers of propionic acidemia patients are treated with increasing doses of compound 1 (0, 1, 3, 10, 30, 100, 300, 1000 μM) for 30 min. After 30 min the cells are challenged with ^13C-KIVA (1 mM) and ^13C-isoleucine (3 mM) for 60 minutes. At the end of the challenge period, media is removed and the cells are washed with ice cold PBS. Cells are lysed with 70% MeCN containing 4 nM of hexanoyl-carnitine as an internal standard (lysis buffer), harvested and processed for HTMS/MS analysis."}, "[5]": {"tested_on": "primary hepatocytes of propionic acidemia patients", "assay": "Reduction of propionyl-CoA with compounds 8 and 9 (Example 9)", "type": "cell-based, human", "conditions": "PA hepatocytes; 13C-isoleucine (3 mM)", "protocol": "Primary hepatocytes isolated from livers of propionic acidemia patients are treated with increasing doses of compound 1 (0, 0.1, 0.3, 1, 3, 10, 30, 100 μM) for 30 minutes. After 30 minutes, the cells are challenged with ^13C-isoleucine (3 mM) for 60 minutes. At the end of the challenge period, media is removed and the cells are lysed with 70% MeCN and 0.1% TFA containing 100 μM of ethymalonyl-CoA as an internal standard and harvested. Cell lysates are processed for HTMS/MS analysis."}, "[6]": {"conditions": "read-out: concentration of 12C-Compound-CoA ester EC50"}, "[7]": {"conditions": "read-out: concentration of 13C-propionyl-CoA EC50"}},
  "note": "Where two headings read alike, the source gives them in different places.",
  "data": [
    {"smiles": "CCCC(CCC)C(=O)O", "note": "[Compound 1, 2-propylpentanoic acid (valproic acid)]", "values": [
      {"measurement": "EC50", "setting": "[1]; [6]", "value": 12.5, "unit": "µM"},
      {"measurement": "EC50", "setting": "[1]; [7]", "value": 12.4, "unit": "µM"},
      {"measurement": "intracellular propionyl-CoA from all sources investigated", "setting": "[2]", "value": "dose-dependent reduction"},
      {"measurement": "EC50", "setting": "[2]; 100 μM 13C-heptanoate", "value": 48.2, "unit": "µM"},
      {"measurement": "EC50", "setting": "[2]; 1 mM 13C-KIVA", "value": 14.2, "unit": "µM"},
      {"measurement": "EC50", "setting": "[2]; 3 mM 13C-ILE", "value": 15, "unit": "µM"},
      {"measurement": "EC50", "setting": "[2]; 5 mM 13C-MET", "value": 7.14, "unit": "µM"},
      {"measurement": "EC50", "setting": "[2]; 5 mM 13C-THR", "value": 9.2, "unit": "µM"},
      {"measurement": "EC50", "setting": "[2]; 5 mM 13C-propionate", "value": 21.2, "unit": "µM"},
      {"measurement": "intracellular propionyl-CoA and methylmalonyl-CoA from all sources investigated", "setting": "[3]", "value": "dose-dependent reduction"},
      {"measurement": "EC50", "setting": "[3]; 100 μM 13C-propionate, read-out: concentration of methylmalonyl-CoA EC50", "value": 89.4, "unit": "µM"},
      {"measurement": "EC50", "setting": "[3]; 100 μM 13C-propionate, read-out: concentration of propionyl-CoA EC50", "value": 68.2, "unit": "µM"},
      {"measurement": "EC50", "setting": "[3]; 1 mM 13C-KIVA, read-out: concentration of methylmalonyl-CoA EC50", "value": 31.3, "unit": "µM"},
      {"measurement": "EC50", "setting": "[3]; 1 mM 13C-KIVA, read-out: concentration of propionyl-CoA EC50", "value": 30.9, "unit": "µM"},
      {"measurement": "EC50", "setting": "[3]; 3 mM 13C-ILE, read-out: concentration of methylmalonyl-CoA EC50", "value": 25.5, "unit": "µM"},
      {"measurement": "EC50", "setting": "[3]; 3 mM 13C-ILE, read-out: concentration of propionyl-CoA EC50", "value": 30.8, "unit": "µM"},
      {"measurement": "EC50", "setting": "[3]; 5 mM 13C-MET, read-out: concentration of methylmalonyl-CoA EC50", "value": 47.3, "unit": "µM"},
      {"measurement": "EC50", "setting": "[3]; 5 mM 13C-MET, read-out: concentration of propionyl-CoA EC50", "value": 50.7, "unit": "µM"},
      {"measurement": "EC50", "setting": "[3]; 5 mM 13C-THR, read-out: concentration of methylmalonyl-CoA EC50", "value": 25.6, "unit": "µM"},
      {"measurement": "EC50", "setting": "[3]; 5 mM 13C-THR, read-out: concentration of propionyl-CoA EC50", "value": 13.9, "unit": "µM"},
      {"measurement": "intracellular propionyl-carnitine (C3) from 13C-KIVA or 13C-isoleucine", "setting": "[4]", "value": "dose-dependent reduction"},
      {"measurement": "EC50", "setting": "[4]; 1 mM 13C-KIVA", "value": 44.3, "unit": "µM"},
      {"measurement": "EC50", "setting": "[4]; 3 mM 13C-ILE", "value": 54.3, "unit": "µM"}
    ]},
    {"smiles": "CCCC(CC)C(=O)O", "note": "(centres unmarked) [Compound 2, 2-ethylpentanoic acid]", "values": [
      {"measurement": "EC50", "setting": "[1]; [6]", "value": 1.24, "unit": "µM"},
      {"measurement": "EC50", "setting": "[1]; [7]", "value": 1.23, "unit": "µM"}
    ]},
    {"smiles": "CCCC(C)C(=O)O", "note": "(centres unmarked) [Compound 3, 2-methylpentanoic acid]", "values": [
      {"measurement": "EC50", "setting": "[1]; [6]", "value": 27.4, "unit": "µM"},
      {"measurement": "EC50", "setting": "[1]; [7]", "value": 13, "unit": "µM"}
    ]},
    {"smiles": "CCC(CC)C(=O)O", "note": "[Compound 4, 2-ethylbutanoic acid]", "values": [
      {"measurement": "EC50", "setting": "[1]; [6]", "value": 10.3, "unit": "µM"},
      {"measurement": "EC50", "setting": "[1]; [7]", "value": 32.4, "unit": "µM"}
    ]},
    {"smiles": "CC(C)(C)CC(=O)O", "note": "[Compound 6, 3,3-dimethylbutanoic acid]", "values": [
      {"measurement": "EC50", "setting": "[1]; [6]", "value": 0.48, "unit": "µM"},
      {"measurement": "EC50", "setting": "[1]; [7]", "value": 0.91, "unit": "µM"}
    ]},
    {"smiles": "CC1(CC(=O)O)CC1", "note": "[Compound 7, 2-(1-methylcyclopropyl) acetic acid]", "values": [
      {"measurement": "EC50", "setting": "[1]; [6]", "value": 10.2, "unit": "µM"},
      {"measurement": "EC50", "setting": "[1]; [7]", "value": 28.8, "unit": "µM"}
    ]},
    {"smiles": "CC(C)(C)C(=O)O", "note": "[Compound 8, 2,2,dimethylpropionic acid]", "values": [
      {"measurement": "intracellular propionyl-CoA", "setting": "[5]", "value": "dose-dependent reduction"}
    ]},
    {"smiles": "CCCC(C)(C)C(=O)O", "note": "[Compound 9, 2,2-dimethylpentanoic acid]", "values": [
      {"measurement": "intracellular propionyl-CoA", "setting": "[5]", "value": "dose-dependent reduction"}
    ]}
  ]
}
